Here are results for 12 compounds from ChEMBL document CHEMBL5241075, “Advancement of chimeric hybrid drugs to cure malaria infection: An overview with special emphasis on endoperoxide pharmacophores” (Eur J Med Chem, 2021).

The subject of data set [1] is Plasmodium falciparum. The data set is described as follows: Antiplasmodial activity against Plasmodium falciparum W2. Format: functional, organism-based.
Data set [2] deals with Plasmodium berghei. The data set is described as follows: Antimalarial activity against liver stage Plasmodium berghei. Format: functional, organism-based.
In a further data set the test system is Caco-2. Put plainly: Cytotoxicity against human Caco-2 cells assessed as reduction in cell viability. Format: functional.
In data set [3] the test system is Plasmodium berghei. Put plainly: Antiplasmodial activity against Plasmodium berghei infected in mouse assessed as reduction in parasitemia at 13 mg/kg in presence of mefloquine relative to control. Format: functional. Also on record: scale not given: the % may be the effect or the level left.
The test system of data set [4] is Plasmodium berghei. Put plainly: Antiplasmodial activity against Plasmodium berghei infected in mouse assessed as reduction in parasitemia at 6.8 mg/kg in presence of mefloquine relative to control. Also on record: scale not given: the % may be the effect or the level left. The format is functional.
The test system of data set [5] is Plasmodium falciparum. The data set is described as follows: Resistance index, ratio of IC50 for antiplasmodial activity against Plasmodium falciparum K1 to IC50 for antiplasmodial activity against Plasmodium falciparum D10. The format is functional.
The subject of data set [6] is Plasmodium falciparum. The data set is described as follows: Antiplasmodial activity against Plasmodium falciparum K1. The format is functional, organism-based.
The test system of a further data set is HeLa. The data set is described as follows: Antiproliferative activity against human HeLa cells assessed as cell growth inhibition. To be noted: hela. Format: functional, cell-based.
Data set [7] is described as follows: Therapeutic index, ratio of IC50 for antiproliferative activity against human HeLa cells to IC50 for antiplasmodial activity against Plasmodium falciparum K1. The format is toxicity, cell-based.
The test system of the next data set is Hemozoin. Put plainly: Inhibition of Beta-hematin in Plasmodium falciparum.
The subject of data set [8] is Plasmodium falciparum. Put plainly: Antiplasmodial activity against Plasmodium falciparum D10. The format is functional, organism-based.
For data set [9], the system named is Plasmodium falciparum. The data set is described as follows: Antiplasmodial activity against Plasmodium falciparum TM91C235. The format is functional, organism-based.
The subject of data set [10] is Plasmodium falciparum. The data set is described as follows: Antiplasmodial activity against Plasmodium falciparum gametocytes assessed as inhibition of gametocyte activation by [3H]hypoxanthine incorporation assay. Format: functional, organism-based.
In data set [11] the test system is Plasmodium falciparum. Put plainly: Antiplasmodial activity against Plasmodium falciparum gametocytes by [3H]hypoxanthine incorporation assay. Format: functional, organism-based.
Data set [12] concerns Plasmodium falciparum. Put plainly: Antiplasmodial activity against Plasmodium falciparum 3D7. The format is functional, organism-based.
The test system of a further data set is Plasmodium chabaudi. Put plainly: Antiplasmodial activity against Plasmodium chabaudi infected in mouse assessed as survival rate relative to control. The format is functional.
The test system of data set [13] is Plasmodium berghei. The data set is described as follows: Antimalarial activity against Plasmodium berghei infected in mouse assessed as reduction in parasitemia. The format is functional. To be noted: Plasmodium berghei.
The subject of data set [14] is Plasmodium falciparum. The data set is described as follows: Antiplasmodial activity against Plasmodium falciparum NF54. The format is functional, organism-based.
Data set [15] concerns Plasmodium berghei. Put plainly: Antiplasmodial activity against Plasmodium berghei N infected in sc dosed mouse assessed as reduction in parasitemia. Format: functional.
In data set [16] the test system is Plasmodium berghei. The data set is described as follows: Antiplasmodial activity against Plasmodium berghei N infected in po dosed mouse assessed as reduction in parasitemia. The format is functional.
The next data set concerns Plasmodium yoelii. Put plainly: Antimalarial activity against Plasmodium yoelii infected in swiss mouse assessed as reduction in parasitemia at 96 mg/kg, po relative to control. The format is functional. The arrangement: scale not given: the % may be the effect or the level left.
Data set [17] has as its system Plasmodium berghei. Put plainly: Antimalarial activity against Plasmodium berghei KBG 173 infected in ICR mouse assessed as animal survival at 80 mg/kg/day, po qd administered 3 to 5 days post infection. The format is functional, organism-based. To be noted: time 3-5 day.
For data set [18], the system named is Plasmodium berghei. The data set is described as follows: Antimalarial activity against Plasmodium berghei KBG 173 infected in ICR mouse assessed as survival time at 320 mg/kg/day, po qd administered 3 to 5 days post infection. Format: functional. To be noted: time 3-5 day.
For data set [19], the system named is Plasmodium berghei. Put plainly: Antimalarial activity against Plasmodium berghei KBG 173 infected in ICR mouse assessed as survival time at 80 mg/kg/day, po qd administered 3 to 5 days post infection. The format is functional. To be noted: time 3-5 day.
Data set [20] has as its system Plasmodium berghei. The data set is described as follows: Antimalarial activity against Plasmodium berghei KBG 173 infected in ICR mouse assessed as survival time at 20 mg/kg/day, po qd administered 3 to 5 days post infection. The format is functional. To be noted: time 3-5 day.
Data set [21] has as its system Plasmodium berghei. Put plainly: Antimalarial activity against Plasmodium berghei KBG 173 infected in ICR mouse assessed as animal survival at 20 mg/kg/day, po qd administered 3 to 5 days post infection. The format is functional, organism-based. To be noted: time 3-5 day.
Data set [22] concerns Plasmodium berghei. Put plainly: Antimalarial activity against Plasmodium berghei KBG 173 infected in ICR mouse assessed as animal survival at 320 mg/kg/day, po qd administered 3 to 5 days post infection. Format: functional, organism-based. To be noted: time 3-5 day.
In data set [23] the test system is Plasmodium yoelii nigeriensis. Put plainly: Antiplasmodial activity against Plasmodium yoelii nigeriensis infected in sc dosed mouse assessed as reduction in parasitemia. Format: functional.
Data set [24] relates to Plasmodium falciparum. The data set is described as follows: Antimalarial activity against chloroquine resistant Plasmodium falciparum FcM29 Cameron. The format is functional, organism-based.
In data set [25] the test system is Plasmodium yoelii nigeriensis. The data set is described as follows: Antiplasmodial activity against Plasmodium yoelii nigeriensis infected in po dosed mouse assessed as reduction in parasitemia. The format is functional.
The test system of data set [26] is Plasmodium falciparum. The data set is described as follows: Antimalarial activity against chloroquine sensitive Plasmodium falciparum D6. Format: functional, organism-based.
Data set [27] concerns Plasmodium falciparum. Put plainly: Antiplasmodial activity against Plasmodium falciparum D6. Format: functional, organism-based.

Converted amounts (≈) assume the structure as drawn. The source made the active and inactive calls. No cut-off for these calls is given here. Some results are limits rather than exact numbers.

As to `COc1cc(NC(C)CCCNC(=O)C2CCC3(CC2)OOC2(OO3)C3CC4CC(C3)CC2C4)c2nccc(F)c2c1` (stereo unspecified), the EC50 with Plasmodium falciparum [1] is 0.057 µM; with Plasmodium berghei [2] it was 2.38 µM. The CC50 (in general, the concentration that lowers cell viability or growth by half) in the data set on Caco-2 is > 50000 µM.
As to `C[C@@H]1CC[C@H]2[C@@H](C)C(CCC(=O)Nc3ccc(F)cc3)O[C@@H]3O[C@]4(C)CC[C@@H]1[C@]32OO4` (stereo partly specified), the figures for the Activity with Plasmodium berghei [3] and in the data set with Plasmodium berghei [4] were 99.6% and 99%, respectively.
Turning to `C[C@@H]1CC[C@H]2[C@@H](C)C(OCc3ccc(C(=O)N(CCNc4ccnc5cc(Cl)ccc45)CC(=O)NC(C)(C)C)cc3)O[C@@H]3O[C@]4(C)CC[C@@H]1[C@]32OO4.O=C(O)CC(O)(CC(=O)O)C(=O)O` (stereo partly specified), the “Ratio IC50” value in the data set with Plasmodium falciparum [5] stood at 0.7; in data set [7] it was 20. Besides, the IC50 with Plasmodium falciparum [6] was determined as 0.018 µM; with HeLa it was 0.356 µM; in the data set with Hemozoin, 0.4 equiv; in the data set with Plasmodium falciparum [8] it was 0.024 µM.
Consider `O[C@@H](c1cc(C(F)(F)F)nc2c(C(F)(F)F)cccc12)[C@H]1CCCCN1` [(S,R)-MEFLOQUINE], for which the concentration for an effect of 90% (IC90) (commonly the point of the concentration-response curve where the effect stands at 90%) in the data set on Plasmodium falciparum [1] came to 0.64 µM; with Plasmodium falciparum [9] it was 0.264 µM. Moreover, the IC50 was 0.13 µM in the data set with Plasmodium falciparum [9], 5600 µM with Plasmodium falciparum [10] and 16500 µM in the data set with Plasmodium falciparum [11].
On to `C[C@@H]1CC[C@H]2[C@@H](C)C(CCc3ccc(C(=O)O)cc3)O[C@@H]3O[C@]4(C)CC[C@@H]1[C@]32OO4` (stereo partly specified), for which the EC50 came to 0.6 ng/mL (≈ 1.44 nM) in the data set on Plasmodium falciparum [6] (Plasmodium falciparum, K1, read-out: ED50 (the source's name)) and 1.1 ng/mL (≈ 2.64 nM) in the data set on Plasmodium falciparum [12] (read-out: ED50 (the source's name)). Besides, in the data set with Plasmodium chabaudi, the Survival worked out at 100%.
In the case of `C[C@@H]1CC[C@H]2[C@@H](C)C(CCN3CCN(c4ccc(C(F)(F)F)cc4)CC3)O[C@@H]3O[C@]4(C)CC[C@@H]1[C@]32OO4` (stereo partly specified), the IC50 with Plasmodium falciparum [6] (Plasmodium falciparum, K1) turned out to be 0.00619 µM. Moreover, the ED50 (commonly the dose at which the effect has come halfway, by size or by number of responders) with Plasmodium berghei [13] worked out at 6 mg/kg.
Consider `Cc1ccc(C2O[C@@H]3O[C@]4(C)CC[C@H]5[C@H](C)CC[C@@H]([C@H]2C)[C@@]35OO4)o1` (stereo partly specified), for which, in the data set with Plasmodium falciparum [14], the IC50 is 0.0052 µM. Also, the ED50 with Plasmodium berghei [15] stood at 0.9 mg/kg; with Plasmodium berghei [16], 15.5 mg/kg.
As to `C=C(c1ccccc1)C1COC2(CCC(NCCNc3ccnc4cc(Cl)ccc34)CC2)OO1` (stereo unspecified), the Activity in the data set on Plasmodium yoelii was 89%.
As to `O=C(NCCNc1ccnc2cc(Cl)ccc12)C1CCC2(CC1)OOC1(CCCCC1)OO2`, the result in the data set with Plasmodium berghei [17] and with Plasmodium berghei [22] was Active. Moreover, the Time is >31 days with Plasmodium berghei [18], 26.2 days in the data set on Plasmodium berghei [19] and 14.2 days with Plasmodium berghei [20]. Also, the 90% effect level in the data set on Plasmodium falciparum [9] (IC90) was put at 0.00378 µM. In addition, the outcome with Plasmodium berghei [21] was inactive.
Consider `COc1cc(NC(C)CCCNC(=O)C2CCC3(CC2)OOC2(OO3)C3CC4CC(C3)CC2C4)c2nccc(Br)c2c1` (stereo unspecified), for which the EC50 was determined as 0.061 µM with Plasmodium falciparum [1] and 4.44 µM in the data set on Plasmodium berghei [2]. In addition, the half-maximal cytotoxic concentration (CC50) in the data set on Caco-2 was > 50000 µM.
With `C[C@@H]1CC[C@H]2[C@@H](C)C(=O)O[C@@H]3O[C@@]4(C)CC[C@@H]1[C@]32OO4` [ARTEMISININ], the IC50 was 0.0067 µM in the data set with Plasmodium falciparum [1]; 0.007 µM in the data set with Plasmodium falciparum [24]; 0.00532 µM in the data set on Plasmodium falciparum [12]; 0.66 equiv in the data set with Hemozoin; 0.023 µM in the data set on Plasmodium falciparum [8] (Plasmodium falciparum, D10); 0.013 µM in the data set with Plasmodium falciparum [9]. The IC50 is 0.008 µM in the data set on Plasmodium falciparum [26] and 0.009 µM with Plasmodium falciparum [27]. Further, the figures for the IC90 with Plasmodium falciparum [1], in the data set on Plasmodium falciparum [9] and in the data set with Plasmodium falciparum [27] were 0.0115 µM, 0.0174 µM and 0.0128 µM, respectively. Also, the CD50 in data set [23] is 3 mg/kg/day; in data set [25] it was 75 mg/kg/day. The figures for the CD90 in data set [23] and in data set [25] were 5 mg/kg/day and >100 mg/kg/day, respectively. Besides, the ED50 stood at 3 mg/kg/day in [23] (Plasmodium yoelii) and 16 mg/kg/day in [25] (Plasmodium yoelii). The ED90 in [23] (Plasmodium yoelii) came to 5 mg/kg/day; in data set [25] (Plasmodium yoelii), 27 mg/kg/day.
With `C[C@@H]1CC[C@H]2[C@@H](C)C(c3cccn3C)O[C@@H]3O[C@]4(C)CC[C@@H]1[C@]32OO4` (stereo partly specified), the IC50 with Plasmodium falciparum [14] was found to be 0.0046 µM. In addition, in the data set on Plasmodium berghei [15], the ED50 came to 0.7 mg/kg.
